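Compound exposure: 48 hours, 5 concentrations, 96-well plates. Abbreviation: GI50, concentration required for 50% inhibition of growth. TGI is the concentration that stops growth completely.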
Tests used:
Assay in all cases: NCI anticancer screen, dose series, 48 h
[1] = tested on: TK-10 renal
[2] = tested on: HT29 colon
[3] = tested on: NCI-H460 lung
[4] = tested on: HL-60(TB) leukemia
[5] = tested on: SK-MEL-2 melanoma
[6] = tested on: UACC-257 melanoma
[7] = tested on: A549 NSCLC
[8] = tested on: HCT-116 colon
[9] = tested on: NCI-H522 lung
[10] = tested on: EKVX NSCLC
[11] = tested on: SF-268 CNS
[12] = tested on: SF-539 CNS
[13] = tested on: OVCAR-5 ovarian
[14] = tested on: HOP-62 NSCLC
[15] = tested on: MDA-MB-231 breast
[16] = tested on: A498 renal
[17] = tested on: SK-OV-3 ovarian
[18] = tested on: HS 578T breast
[19] = tested on: 786-0 renal
[20] = tested on: HCC-2998 colon
[21] = tested on: LOX IMVI melanoma
[22] = tested on: U251 CNS
[23] = tested on: PC-3 prostate
[24] = tested on: RPMI-8226 leukemia
[25] = tested on: SK-MEL-28 melanoma
[26] = tested on: IGROV1 ovarian
[27] = tested on: DU-145 prostate
[28] = tested on: CAKI-1 renal
[29] = tested on: SK-MEL-5 melanoma
[30] = tested on: SR leukemia
[31] = tested on: UACC-62 melanoma
[32] = tested on: MALME-3M melanoma
[33] = tested on: SNB-75 CNS
[34] = tested on: NCI-H226 lung
[35] = tested on: UO-31 renal
[36] = tested on: COLO 205 colon
[37] = tested on: SN12C renal
[38] = tested on: OVCAR-8 ovarian
[39] = tested on: T-47D breast
[40] = tested on: M14 melanoma
[41] = tested on: CCRF-CEM leukemia
[42] = tested on: KM12 colon
[43] = tested on: SNB-19 CNS
[44] = tested on: HCT-15 colon
[45] = tested on: MCF7 breast
[46] = tested on: RXF 393 renal
[47] = tested on: ACHN renal
[48] = tested on: HOP-92 NSCLC
[49] = tested on: SW-620 colon
[50] = tested on: SF-295 CNS
[51] = tested on: MDA-MB-435
[52] = tested on: OVCAR-4 ovarian
[53] = tested on: BT-549 breast
[54] = tested on: K-562 leukemia

COc1ccc2c(c1)Oc1nc(N)c(C#N)c(N)c1C2Sc1ccc(C)cc1 (stereo not drawn)
GI50 [1]: 1830 nM
TGI [1]: 3.22 µM
GI50 [2]: 1800 nM
TGI [2]: 3.3 µM
GI50 [3]: 1980 nM
TGI [3]: 3.9 µM
GI50 [4]: 1720 nM
TGI [4]: 5.26 µM
GI50 [5]: 1590 nM
TGI [5]: 2940 nM
GI50 [6]: 1710 nM
TGI [6]: 3.11 µM
GI50 [7]: 1770 nM
TGI [7]: 3.33 µM
GI50 [8]: 1750 nM
TGI [8]: 3.31 µM
GI50 [9]: 1530 nM
TGI [9]: 2870 nM
GI50 [10]: 1720 nM
TGI [10]: 3.28 µM
GI50 [11]: 1590 nM
TGI [11]: 3.04 µM
GI50 [12]: 1610 nM
TGI [12]: 2980 nM
GI50 [13]: 1780 nM
TGI [13]: 3.24 µM
GI50 [14]: 1820 nM
TGI [14]: 3.31 µM
GI50 [15]: 1710 nM
TGI [15]: 3.13 µM
GI50 [16]: 1480 nM
TGI [16]: 2800 nM
GI50 [17]: 1900 nM
TGI [17]: 3.39 µM
GI50 [18]: 2410 nM
TGI [18]: 5.83 µM
GI50 [19]: 1700 nM
TGI [19]: 3.13 µM
GI50 [20]: 1750 nM
TGI [20]: 3.26 µM
GI50 [21]: 1410 nM
TGI [21]: 2840 nM
GI50 [22]: 1550 nM
TGI [22]: 2960 nM
GI50 [23]: 1620 nM
TGI [23]: 3.04 µM
GI50 [24]: 2610 nM
TGI [24]: 7.27 µM
GI50 [25]: 1730 nM
TGI [25]: 3.12 µM
GI50 [26]: 1200 nM
TGI [26]: 2490 nM
GI50 [27]: 1870 nM
TGI [27]: 3.34 µM
GI50 [28]: 1340 nM
TGI [28]: 2630 nM
GI50 [29]: 1790 nM
TGI [29]: 3.19 µM
GI50 [30]: 313 nM
TGI [30]: > 100 µM
GI50 [31]: 1660 nM
TGI [31]: 3.08 µM
GI50 [32]: 1670 nM
TGI [32]: 3.12 µM
GI50 [33]: 1400 nM
TGI [33]: 2700 nM
GI50 [34]: 1970 nM
TGI [34]: 4.59 µM
GI50 [35]: 1180 nM
TGI [35]: 2420 nM
GI50 [36]: 1900 nM
TGI [36]: 3.6 µM
GI50 [37]: 1590 nM
TGI [37]: 2940 nM
GI50 [38]: 1730 nM
TGI [38]: 3.14 µM
GI50 [39]: 1220 nM
TGI [39]: 3.91 µM
GI50 [40]: 1850 nM
TGI [40]: 3.36 µM
GI50 [41]: 421 nM
TGI [41]: > 100 µM
GI50 [42]: 1740 nM
TGI [42]: 3.15 µM
GI50 [43]: 1720 nM
TGI [43]: 3.12 µM
GI50 [44]: 1330 nM
TGI [44]: 2830 nM
GI50 [45]: 1260 nM
TGI [45]: 2900 nM
GI50 [46]: 1480 nM
TGI [46]: 2810 nM
GI50 [47]: 1660 nM
TGI [47]: 3.02 µM
GI50 [48]: 1640 nM
TGI [48]: 3.01 µM
GI50 [49]: 1770 nM
TGI [49]: 3.38 µM
GI50 [50]: 1690 nM
TGI [50]: 3.08 µM
GI50 [51]: 1670 nM
TGI [51]: 3.09 µM
GI50 [52]: 1730 nM
TGI [52]: 3.13 µM
GI50 [53]: 1290 nM
TGI [53]: 2580 nM
GI50 [54]: 584 nM
TGI [54]: > 100 µM

From PubChem BioAssay (NCI)
